Test results as given in ChEMBL document CHEMBL1201862, “PubChem BioAssay data set” (2004).
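Where inhibition never reached the appropriate level, the endpoint shown equals the highest concentration tested. Otherwise, values were interpolated linearly from a five-concentration, 48-hour dose response in 96-well plates. At the GI50, growth is halved.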 Activity calls are given as the source filed them. Cut-off read from the data, not from the text of the source: active = GI50 up to about 1.1 µM and inactive = higher.

Columns and labels:
Experiment in all cases: inhibition of tumour cell growth, NCI panel, 48 h
[1] = system: CAKI-1
[2] = system: COLO 205
[3] = system: HCT-116
[4] = system: HOP-92
[5] = system: HT-29
[6] = system: Hs-578T
[7] = system: KM12
[8] = system: LOX IMVI
[9] = system: MDA-N
[10] = system: NCI-H23
[11] = system: NCI-H522
[12] = system: OVCAR-4
[13] = system: RPMI-8226
[14] = system: SK-MEL-2
[15] = system: SK-OV-3
[16] = system: SN12C
[17] = system: SR
[18] = system: UACC-62
[19] = system: UO-31
[20] = system: SNB-78

Measured: GI50

NC(CSC1(c2ccc(Cl)cc2)c2ccccc2-c2ccccc21)C(=O)O (stereo unspecified)
inactive: [1] 33.5 µM | [2] 15.5 µM | [3] 16.6 µM | [4] 20.7 µM | [5] 37.8 µM | [6] 18.2 µM | [7] 24.1 µM | [8] 16.7 µM | [9] > 100 µM | [10] 19.1 µM | [11] 15.4 µM | [12] 22.2 µM | [13] 12.3 µM | [14] 20.9 µM | [15] 25.1 µM | [16] 19.1 µM | [17] 15.1 µM | [18] 15.4 µM | [19] 28.7 µM

CCCC[C@H]1C(=O)O[C@H](C)[C@H](NC(=O)c2cccc(NC=O)c2OC)C(=O)O[C@@H](C)[C@@H]1OC(=O)C(C)CC.CCCC[C@H]1C(=O)O[C@H](C)[C@H](NC(=O)c2cccc(NC=O)c2OC)C(=O)O[C@@H](C)[C@@H]1OC(=O)CC(C)C (stereo partly specified)
inactive: [1] 7.87 µM | [2] 11.7 µM | [3] 12.1 µM | [4] 6.98 µM | [5] 9.84 µM | [6] 17.7 µM | [7] 11.6 µM | [8] 10.3 µM | [9] 17.6 µM | [10] 7.36 µM | [11] 8.51 µM | [12] 7.94 µM | [13] 10.2 µM | [14] 6.07 µM | [15] 12.5 µM | [16] 17.3 µM | [17] 14.5 µM | [18] 7.14 µM | [19] 14.8 µM

N#CCCN(CCC#N)c1ccc(/C=C(/NC(=O)c2cc([N+](=O)[O-])ccc2Cl)C(=O)NN)cc1
inactive: [1] > 100 µM | [2] > 100 µM | [3] > 100 µM | [5] > 100 µM | [7] > 100 µM | [8] 41.4 µM | [10] > 100 µM | [11] > 100 µM | [12] > 100 µM | [13] 29.6 µM | [14] > 100 µM | [15] > 100 µM | [16] > 100 µM | [20] > 100 µM | [17] 3.94 µM | [18] > 100 µM | [19] > 100 µM

Cc1cccc(NC2=NC(=O)C(CC(=O)Nc3cccc(C)c3C)S2)c1 (stereo unspecified)
inactive: [2] > 100 µM | [3] > 100 µM | [4] 21.2 µM | [5] > 100 µM | [7] > 100 µM | [8] > 100 µM | [10] > 100 µM | [12] > 100 µM | [13] 85.9 µM | [14] > 100 µM | [16] > 100 µM | [20] > 100 µM | [18] > 100 µM | [19] > 100 µM

Oc1ccccc1/C=N/Cc1ccco1
inactive: [3] > 100 µM | [5] > 100 µM | [7] > 100 µM | [8] > 100 µM | [10] > 100 µM | [12] > 100 µM | [13] > 100 µM | [15] > 100 µM | [16] > 100 µM | [20] > 100 µM | [17] > 100 µM | [18] > 100 µM | [19] > 100 µM

O=C(Nc1cccc2ccccc12)Oc1ccccc1C1CCCCC1
inactive: [2] > 10 µM | [3] 17.7 µM | [4] 15.8 µM | [5] 18.2 µM | [7] 20.2 µM | [8] 16.3 µM | [10] 17.9 µM | [12] 16.3 µM | [13] 30.3 µM | [14] 18.2 µM | [15] 30.8 µM | [16] 16 µM | [20] 23.4 µM | [17] 17.5 µM | [18] 15.9 µM | [19] 16.1 µM

NC(=O)C12CC3CC(CC(F)(C3)C1)C2
inactive: [2] > 100 µM | [3] > 100 µM | [4] > 100 µM | [5] > 100 µM | [7] > 100 µM | [8] > 100 µM | [10] > 100 µM | [11] > 100 µM | [13] > 100 µM | [14] > 100 µM | [15] > 100 µM | [20] > 100 µM | [18] > 100 µM | [19] > 100 µM

C/C=C(\C)C(=O)OC1C2C(C)C(=O)OC2C(O)C(C)C2C=CC(=O)C21C (stereo unspecified)
inactive: [1] 13 µM | [2] 12.7 µM | [3] 9.59 µM | [4] 13.4 µM | [5] 15.2 µM | [6] 13.3 µM | [7] 11.1 µM | [8] 13.2 µM | [9] 8.81 µM | [10] 10.4 µM | [11] 2.69 µM | [12] 16.9 µM | [13] 4.61 µM | [14] 17.8 µM | [15] 16.6 µM | [16] 14.9 µM | [17] 2.18 µM | [18] 10.5 µM | [19] 14.8 µM
